Experimental data published in ChEMBL document CHEMBL1201862, “PubChem BioAssay data set” (2004).
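In this assay, cells in 96-well plates receive the compound at five concentrations for 48 hours. Endpoints are linearly interpolated between the surrounding concentrations. GI50 is the concentration that inhibits growth by half.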 Calls of active or inactive are those of the source. Cut-off read from the data, not from the text of the source: active = GI50 up to about 1.1 µM and inactive = higher.

Key:
Assay in all cases: growth of human tumour cells (NCI), 48 h
A498 = system: A498
ACHN = system: ACHN
CCRF-CEM = system: CCRF-CEM
DLD-1 = system: DLD-1
DMS-114 = system: DMS-114
EKVX = system: EKVX
HCC 2998 = system: HCC 2998
HCT-116 = system: HCT-116
HCT-15 = system: HCT-15
HL-60 = system: HL-60
HOP-62 = system: HOP-62
HT-29 = system: HT-29
K562 = system: K562
KM12 = system: KM12
LOX IMVI = system: LOX IMVI
LXFL 529 = system: LXFL 529
M14 = system: M14
M19-MEL = system: M19-MEL
MOLT-4 = system: MOLT-4
Malme-3M = system: Malme-3M
NCI-H23 = system: NCI-H23
NCI-H460 = system: NCI-H460
NCI-H522 = system: NCI-H522
OVCAR-3 = system: OVCAR-3
OVCAR-4 = system: OVCAR-4
OVCAR-5 = system: OVCAR-5
RXF 393 = system: RXF 393
RXF 631 = system: RXF 631
SF-268 = system: SF-268
SF-539 = system: SF-539
SK-MEL-28 = system: SK-MEL-28
SK-MEL-2 = system: SK-MEL-2
SK-OV-3 = system: SK-OV-3
SN12C = system: SN12C
SNB-19 = system: SNB-19
SNB-75 = system: SNB-75
SNB-78 = system: SNB-78
SR = system: SR
TK-10 = system: TK-10
U-251 = system: U-251
UACC-257 = system: UACC-257
UACC-62 = system: UACC-62
UO-31 = system: UO-31
XF498 = system: XF498
786-0 = system: 786-0
A549 = system: A549
CAKI-1 = system: CAKI-1
COLO 205 = system: COLO 205
DMS-273 = system: DMS-273
HOP-92 = system: HOP-92
IGROV-1 = system: IGROV-1
KM-20L2 = system: KM-20L2
NCI-H226 = system: NCI-H226
OVCAR-8 = system: OVCAR-8
RPMI-8226 = system: RPMI-8226
SF-295 = system: SF-295
SK-MEL-5 = system: SK-MEL-5
SW-620 = system: SW-620

COC(=O)C(=O)Cc1nc2ccccc2o1
GI50 (A498): > 100 µM (inactive)
GI50 (ACHN): > 100 µM (inactive)
GI50 (CCRF-CEM): > 100 µM (inactive)
GI50 (DLD-1): > 100 µM (inactive)
GI50 (DMS-114): > 100 µM (inactive)
GI50 (EKVX): > 100 µM (inactive)
GI50 (HCC 2998): > 100 µM (inactive)
GI50 (HCT-116): > 100 µM (inactive)
GI50 (HCT-15): > 100 µM
GI50 (HL-60): > 100 µM (inactive)
GI50 (HOP-62): > 100 µM (inactive)
GI50 (HT-29): > 100 µM (inactive)
GI50 (K562): > 100 µM (inactive)
GI50 (KM12): > 100 µM (inactive)
GI50 (LOX IMVI): > 100 µM (inactive)
GI50 (LXFL 529): > 100 µM (inactive)
GI50 (M14): > 100 µM (inactive)
GI50 (M19-MEL): > 100 µM (inactive)
GI50 (MOLT-4): > 100 µM (inactive)
GI50 (Malme-3M): > 100 µM (inactive)
GI50 (NCI-H23): > 100 µM (inactive)
GI50 (NCI-H460): > 100 µM (inactive)
GI50 (NCI-H522): > 100 µM (inactive)
GI50 (OVCAR-3): > 100 µM (inactive)
GI50 (OVCAR-4): > 100 µM (inactive)
GI50 (OVCAR-5): > 100 µM (inactive)
GI50 (RXF 393): > 100 µM (inactive)
GI50 (RXF 631): > 100 µM (inactive)
GI50 (SF-268): > 100 µM (inactive)
GI50 (SF-539): > 100 µM (inactive)
GI50 (SK-MEL-28): > 100 µM (inactive)
GI50 (SK-MEL-2): > 100 µM (inactive)
GI50 (SK-OV-3): > 100 µM (inactive)
GI50 (SN12C): > 100 µM (inactive)
GI50 (SNB-19): > 100 µM (inactive)
GI50 (SNB-75): > 100 µM (inactive)
GI50 (SNB-78): > 100 µM (inactive)
GI50 (SR): > 100 µM (inactive)
GI50 (TK-10): > 100 µM (inactive)
GI50 (U-251): > 100 µM (inactive)
GI50 (UACC-257): > 100 µM (inactive)
GI50 (UACC-62): > 100 µM (inactive)
GI50 (UO-31): > 100 µM (inactive)
GI50 (XF498): > 100 µM (inactive)

NC(=O)N/N=C(/c1nc2ccc([N+](=O)[O-])cc2nc1O)C(O)c1ccco1 (stereo not drawn)
GI50 (786-0): 97.5 µM (inactive)
GI50 (A549): 93.8 µM (inactive)
GI50 (ACHN): 28.4 µM (inactive)
GI50 (CAKI-1): 61.7 µM (inactive)
GI50 (CCRF-CEM): 34.7 µM (inactive)
GI50 (COLO 205): 40 µM (inactive)
GI50 (DLD-1): > 100 µM (inactive)
GI50 (DMS-114): 28.8 µM (inactive)
GI50 (DMS-273): 20.5 µM (inactive)
GI50 (HCC 2998): 31 µM (inactive)
GI50 (HCT-116): > 100 µM (inactive)
GI50 (HCT-15): 12 µM
GI50 (HL-60): 13.1 µM (inactive)
GI50 (HOP-62): 35.3 µM (inactive)
GI50 (HOP-92): > 100 µM (inactive)
GI50 (HT-29): 46.2 µM (inactive)
GI50 (IGROV-1): 73.3 µM (inactive)
GI50 (K562): 33.9 µM (inactive)
GI50 (KM-20L2): 10.4 µM (inactive)
GI50 (LOX IMVI): 21.6 µM (inactive)
GI50 (LXFL 529): 36.8 µM (inactive)
GI50 (M14): 93.8 µM (inactive)
GI50 (M19-MEL): 79.8 µM (inactive)
GI50 (MOLT-4): 94.6 µM (inactive)
GI50 (Malme-3M): > 100 µM (inactive)
GI50 (NCI-H226): > 100 µM (inactive)
GI50 (NCI-H23): > 100 µM (inactive)
GI50 (NCI-H460): 59.6 µM (inactive)
GI50 (NCI-H522): 14.7 µM (inactive)
GI50 (OVCAR-3): > 100 µM (inactive)
GI50 (OVCAR-4): > 100 µM (inactive)
GI50 (OVCAR-5): > 100 µM (inactive)
GI50 (OVCAR-8): > 100 µM (inactive)
GI50 (RPMI-8226): 43 µM (inactive)
GI50 (RXF 393): > 100 µM (inactive)
GI50 (RXF 631): 48.2 µM (inactive)
GI50 (SF-268): 63.4 µM (inactive)
GI50 (SF-295): 80.7 µM (inactive)
GI50 (SF-539): 15.8 µM (inactive)
GI50 (SK-MEL-28): 96.6 µM (inactive)
GI50 (SK-MEL-5): 30 µM (inactive)
GI50 (SK-OV-3): > 100 µM (inactive)
GI50 (SN12C): 17.4 µM (inactive)
GI50 (SNB-19): > 100 µM (inactive)
GI50 (SNB-75): 97.9 µM (inactive)
GI50 (SNB-78): > 100 µM (inactive)
GI50 (SR): 57.1 µM (inactive)
GI50 (SW-620): 44.6 µM (inactive)
GI50 (TK-10): > 100 µM (inactive)
GI50 (U-251): 54.2 µM (inactive)
GI50 (UACC-257): > 100 µM (inactive)
GI50 (UACC-62): 29.2 µM (inactive)
GI50 (UO-31): 53.6 µM (inactive)
GI50 (XF498): > 100 µM (inactive)
